Usually IC50 stands for the concentration that inhibits the measured activity by half. Higher therefore signals lower potency.

Assay [1] has as its system human solid tumour xenograft NCI-H1299 (WT). The assay can be described thus: Hypoxia-dependent binding by fluorescent immunohistochemistry with pimonidazole co-staining. It is filed as in vivo, NIH-III nude mice. To be noted: 60 mg/kg i.p., 60 minutes after 60 mg/kg pimonidazole; tumours excised after 120 minutes. How it is done: FIG. 10 illustrates the absence of hypoxic-dependent binding of compound 67 and compound 93 by fluorescent immune-histochemistry in the human solid tumour xenograft NCI-H1299, with reference to hypoxia staining by compound 15 and pimonidazole (Hypoxyprobe™) as internal standards (positive controls). NCI-H1299 WT tumours were inoculated subcutaneously onto the flank of NIH-Ill nude mice. When the mixed tumours reached approximately 800 mm^3, mice were dosed i.p. with 60 mg/kg of pimonidazole, and 60 minutes later dosed with either 60 mg/kg of compound 15, or 60 mg/kg of compound 67, or 60 mg/kg of compound 93. After 120 minutes the tumours were excised, and fixed in formalin before being embedded in paraffin wax. Tumour section were cut (5 microns) and mounted onto glass slides for immunodetection of bound adducts of compounds. Immunofluorescent microscopy was performed using a monoclonal antibody (Mab1, hybridoma clone 4.3.11.3) conjugated to Alexa-488 (Ex/Em 499/519; green) for the detection of pimonidazole adducts, and monoclonal antibody ELK3-51 directly conjugated to the fluorophore CY5 (Ex/Em 650/670 nm; red) for detection of adducts formed by compound 15 or compound 67 or compound 93. The overlap of pimonidazole with any one of these markers appears as yellow. Images were acquired on a Zeiss LSM 710 confocal microscope (×20 magnification).

In assay [2] the test system is HCT116 cells overexpressing the nitroreductase NfsA from E. coli. The assay can be described thus: Inhibition of cell proliferation, low cell density IC50 assay. Particulars: for IC50: Homo sapiens, HCT-116, 4 hour drug exposure, washing and regrowth for 5 days; for WT:NfsA: WT IC50/NfsA IC50. It is filed as cell-based, human. How it is done: IC50 values were determined as the concentration of prodrug required to inhibit cell growth by 50% of untreated controls following 4 hour drug exposure, with washing and regrowth for 5 days. WT:NfsA ratios were determined as the WT IC50/NfsA IC50.

In assay [3] the test system is bacterial nitroreductase over-expressing E. coli strains. The assay can be described thus: IC50 (turbidity) in selected NTR over-expressing library strains. It is filed as cell-based, Escherichia coli. To be noted: 4 h post-challenge, serial dilution. Here is the method: FIG. 2.3 illustrates the IC50 of compound 67 for selected NTR library strains (i.e. the concentration of compound 67 that yielded only 50% turbidity relative to an unchallenged control 4 h post-challenge, in replicate cultures across a serial dilution of compound 67). The strains selected were all those observed to have SOS activity above the empty plasmid control (“Empty”) in response to challenge with compound 67 as illustrated in FIG. 2(B), plus NfsB (E.c) as a negative control. For the IC50 assays, 100 μl of overnight cultures were used to inoculate 2 ml M63 minimal medium supplemented with 100 μg·ml^−1 ampicillin and 50 μM IPTG and incubated at 30° C., 200 rpm for 3.5 h. 40 μL aliquots from each culture were then added to individual wells of a sterile 384 well plate, each already containing 40 μl of ampicillin and IPTG-supplemented M63 medium and a dilution series of compound 67 as indicated on the X-axis of panel A. A. Raw growth curves. Each NTR over-expression strain was tested at least in duplicate (independent replicates), with the exception of NfsB (E.c), which was only measured once. Culture turbidity was monitored by optical density at 600 nm 4 h post-challenge. B. IC50 values calculated by comparison of the challenged cells with the unchallenged control for each strain, after subtracting the initial absorbance values (t=0 h), using SigmaPlot 10.0 (Systat Software Inc., Richmond, Calif.). Errors are 1 standard error of the mean (SEM).
FIG. 2.4 illustrates the IC50 of compound 93 for selected NTR library strains. […] B. IC50 values calculated by comparison of the challenged cells with the unchallenged control for each strain, after subtracting the initial absorbance values (t=0 h), using SigmaPlot 10.0 (Systat Software Inc., Richmond, Calif.). […]
FIG. 2.5 illustrates the IC50 of compound 97 for selected NTR library strains. […] B. IC50 values calculated by comparison of the challenged cells with the unchallenged control for each strain, after subtracting the initial absorbance values (t=0 h), using SigmaPlot 10.0 (Systat Software Inc., Richmond, Calif.). […]

Assay [4] concerns human lung tumour xenograft NCI-H1299 harbouring approximately 5% NfsA-positive cells. The assay can be described thus: In vivo binding by immunohistochemistry in mixed NfsA/WT xenograft. Particulars: 60 mg/kg i.p., tumours excised after 60 minutes; ELK3-51-CY5 antibody. The arrangement: species or system NIH-III nude mice. How it is done: FIG. 8 illustrates the in vivo binding of compounds 15, 93 and 67 in the human lung tumour xenograft NCI-H1299 harbouring approximately 5% NfsA-positive cells. […] Mixed NfsA/WT NCI-H1299 cells were inoculated subcutaneously onto the flank of NIH-III nude mice. When the mixed tumours reached approximately 500 mm^3, mice were dosed i.p. with 60 mg/kg of either compound 15, compound 93 or compound 67. After 60 minutes the tumours were excised, and fixed in formalin before being embedded in paraffin wax. Tumour section were cut (5 microns) and mounted onto glass slides for immunodetection of bound adducts of compound 15, compound 93 or compound 67 using the monoclonal antibody ELK3-51 directly conjugated to the fluorophore CY5 (Ex/Em 650/670 nm). Fluorescent microscopy was employed to visualise the presence of cellular adducts of each test compound present in individual tumour cells. Image gain was reduced due to intense fluorescent signal indicating extensive adduct binding. Images were acquired on a Zeiss LSM 710 confocal microscope (×20 magnification).

On to `Cc1ncc([N+](=O)[O-])n1CC(=O)NCC(F)(F)C(F)(F)F` [Compound 67, 2-(2-methyl-5-nitro-1H-imidazol-1-yl)-N-(2,2,3,3,3-pentafluoropropyl)acetamide], for which the “Hypoxia-dependent binding in NCI-H1299 WT tumours, immunofluorescent microscopy (FIG. 10)” value in assay [1] was “not detected in the pimonidazole positive hypoxic regions of the NCI-H1299 tumours”. Besides, in assay [2], it took 19 µM to reach half-maximal inhibition (IC50) and the “WT:NfsA” value is 332. Also, the “Inhibition of bacterial cell growth in NTR over-expressing strains compared to controls” value in assay [3] was “Inhibition of bacterial cell growth was selectively observed”. The “Detection of NfsA expressing cells after in vivo binding (FIG. 8)” value in assay [4] was “readily detected by immunohistochemistry with single cell resolution”.
Consider `O=C(Cn1cnc([N+](=O)[O-])c1)NCC(F)(F)C(F)(F)F` [Compound 93, 2-(4-nitro-1H-imidazol-1-yl)-N-(2,2,3,3,3-pentafluoropropyl)acetamide], for which the “Hypoxia-dependent binding in NCI-H1299 WT tumours, immunofluorescent microscopy (FIG. 10)” value in assay [1] is on record as “not detected in the pimonidazole positive hypoxic regions of the NCI-H1299 tumours”. Further, in assay [2], inhibition was half-maximal at 14.5 µM (IC50) and the “WT:NfsA” value is recorded as 100. The “Inhibition of bacterial cell growth in NTR over-expressing strains compared to controls” value in assay [3] was “Inhibition of bacterial cell growth was selectively observed”. Further, the “Detection of NfsA expressing cells after in vivo binding (FIG. 8)” value in assay [4] is reported as “readily detected by immunohistochemistry with single cell resolution”.

Values taken from patent US20150010474A1, “Compounds And Methods For Selective Imaging And/Or Ablation” (Auckland Uniservices Limited, priority 2011, published 2015).
